Results: patent publication US7807712B2, “Oxy substituted chalcones as antihyperglycemic and antidyslipidemic agents” (priority 2004, dated 2010)
Where two headings read alike, the source gives them in different places.

Assays:
[1] = test system: triton WR-1339 induced hyperlipidemic rats; test: Triton model, antidyslipidemic activity; assay type: in vivo, rat (Charles foster); conditions: Rattus norvegicus, 100 mg/kg oral
Procedure: Male Charles foster rats weighing 200-225 g were divided into control, hyperlipidemic and hyperlipidemic plus drug treated groups containing six animals in each group. Hyperlipidemia was induced by administration of triton WR-1339 (200 mg/kg i.p.). All animals were maintained on a special pellet diet and water ad libitum. Compounds and standard drug were macerated with 0.2% aqueous gum acacia suspension. The suspension was fed orally at the dose of 100 mg/kg simultaneously with triton in drug treated group. The animals of control group received the same amount of gum acacia by similar route of administration. At the end of the experiment, after 18 h, blood was withdrawn from retro orbital plexus and plasma was used for the assay of total cholesterol, phospholipid and triglycerides.
Cholesterol was estimated using the kit provided by Roche Diagnostics. Cholesterol esters are enzymatically hydrolyzed by cholesterol esterase (CE) to cholesterol and free fatty acids. Free cholesterol, including that originally present, is then oxidized by cholesterol oxidase (CO) to cholest-4-en-3-one and hydrogen peroxide. The hydrogen peroxide combines with hydroxy benzoic acid (HBA) and 4-aminoantipyrine (4AAA) in the presence of peroxidase (POD) to form a chromophore (quinoneimine dye), which may be quantitated at 500-505 nm. The intensity of red colour formed is directly proportional to the concentration of total cholesterol in the specimen and measured spectrophotometrically (Searcy, C. L. Diagnostic Biochemistry, 1969, McGraw Hill, New York; Ellefson, R. D.; Caraway, W. T. Fundamentals of clinical chemistry, 1976, Ed Tietz N W, 506-515.)
Triglycerides were estimated using the kit provided by Roche Diagnostics. Lipoprotein lipase hydrolyses triglycerides to yield glycerol and fatty acids. Glycerol kinase converts glycerol to glycerol-3-phosphate, which is oxidized by glycerol phosphate oxidase to dihydroxy acetone phosphate and hydrogen peroxide. In the presence of peroxidase, hydrogen peroxide oxidatively couples with 4-aminoantipyrine and 4-chloro phenol to produce red quinonimine dye. The intensity of red colour formed is directly proportional to the concentration of triglycerides in the specimen and is measured by photometrically (Wahlefeld, A. W.; Bergmeyer, H. U. Ed. Methods of enzymatic analysis, 2nd English edition, New York, N.Y., Academic press inc, 1831-1840.).
Serum (0.2 mL) and perchloric acid (1.0 mL) was digested at 180° C. for 1-1.5 h till the solution became colorless. The liberated inorganic phosphate (Pi) was measured by the method of Fiske and Subbarow (Fiske, C. H.; Subbarow, V. J. Biol. Chem. 1925, 66, 375.). 1 mL of 2.5% ammonium molybdate (prepared in 5 N sulphuric acid) and 0.5 mL reducing agent (4-amino naphthol sulphonic acid, 0.2%), sodium metabisulphite (2.4% w/v in distilled water) was added to the above tubes and mixed well. The reaction mixture was […] with 2.5 mL of triple distilled water and kept at 60° C. in water bath for 20 min. For standard, an appropriate amount of potassium dihydrogen phosphate dissolved in triple distilled water containing 2-10 μg phosphorus (Pi) was run simultaneously with the experiment tubes. The optical density of the blue colour was recorded at 620 nm against reagent blank. The values of Pi were converted into phospholipid by multiplying with 25 (a constant calibrated from Pi value of lecithin).

db/db mice [2] = test: Antihyperglycemic activity in db/db mice; assay type: in vivo, mouse (C57BL/KsBom-db); conditions: for % Fall in blood glucose levels 6 days / % Fall in blood glucose levels 10 days: db/db mice; for % Fall in blood glucose levels 6 days: day 6 postprandial protocol; for % Fall in blood glucose levels 10 days: day 10 OGTT, glucose 3 gm/kg
From the text: (§1) The db/db mouse is a well-characterized model of […]. The background for the db/db mouse is the C57BL/Ks strain. The major deficiency of the C57BL/KsBom-db mouse (db/db) is lack of a functional leptin receptor. This leads to defective leptin signaling and a complete lack of feedback from leptin. […] The db/db mouse develops NIDDM from around week 10. The disease is stable until week 20, where destruction of pancreatic β-cells can be recognized clinically as decreasing levels of plasma insulin and very severe hyperglycemia. The male mice are more diabetic than female and will normally die earlier. The advantage of using male mice for experimental purposes is that the fluctuations in plasma parameters are less than in the females where the estrogen cycle affects the clinical diabetes mellitus. The optimal age of db/db mice used for experiments will be from week 12 to 18 when they have developed NIDDM with diabetic dyslipidemia but still have functional β-cells in the pancreas. C57BL/KsBom-db mice 12-18 weeks, 40-50 g bred in the animal house of CDRI, Lucknow. 10 male mice were used in the experiments. The mice were housed in groups of 5 individuals in a room controlled for temperature (23±2° C.) and 12/12 hours light/dark cycle (lights on at 6.00 am). Body weight was measured daily from day 1 to day 10. All animals had free access to fresh water and to normal chow except on the days of the postprandial protocol day 6 and during the overnight fast before the OGTT on day 10. Blood glucose was checked every morning up till day 5. On day 6 postprandial protocol was employed, in this method blood glucose was checked at −0.30 min and 0 h. Test compounds were given to the treatment group whereas control group received only gum acacia (1.0%); the blood glucose was again checked at 1, 2, 3, 4 and 6 h post test compound treatment. Finally on day 10 an oral glucose tolerance test (OGTT) was performed after an overnight fasting. Blood glucose was measured at −0.30 min and test drugs were fed, blood glucose was again measured at 0.0 min post treatment, at this juncture glucose solution was given at a dose of 3 gm/kg to all the groups including control group; the profile of blood glucose was checked at 30 min, 60 min, 90 min and 120 min post glucose administration. Quantitative glucose tolerance of each animal was calculated by Area Under Curve (AUC) method (Prism Software). Comparing the AUC of experimental and control groups determined the percentage antihyperglycemic activity. Statistical comparison was made by Dunnett's test.

db/db mice [3] = test: Antidyslipidemic activity in db/db mice; assay type: in vivo, mouse (C57BL/KsBom-db); conditions: for % Fall in lipid levels HDL: serum HDL-cholesterol; for % Fall in lipid levels Chol.: serum cholesterol; for % Fall in lipid levels TG: serum triglycerides
From the text: as §1
Cholesterol and triglycerides were estimated using the same procedures as given above.
HDL-Cholesterol was estimated using the kit provided by the Roche Diagnostics. Cholestest N HDL is a liquid reagent that directly measures the HDL-cholesterol concentration in serum by a new method that is based on the selective solubilising effect of proprietary detergent to the different lipoproteins. In the assay system, only HDL is solubilised by a special detergent; other lipoproteins are not disturbed. After HDL is selectively disrupted, HDL cholesterol is measured enzymatically (Gordon, T.; Casstelli, W. P.; Hjortland, M. C.; Kannel, W. B.; Dawber, T. R. High density lipoproteins as a protective factor against coronary heart disease, Am. J. Med. 1977, 62, 707-714.).

[4] = plasma phospholipid after 18 h, read-out: % Fall in lipid levels (Triton model) PL
[5] = plasma total cholesterol after 18 h, read-out: % Fall in lipid levels (Triton model) TC
[6] = plasma triglycerides after 18 h, read-out: % Fall in lipid levels (Triton model) TG

Structure (SMILES) | inhibition in vivo at 100 mg/kg [1, 4] | inhibition in vivo at 100 mg/kg [1, 5] | inhibition in vivo at 100 mg/kg [1, 6] | % Fall in blood glucose levels 6 days (db/db mice [2]) | % Fall in blood glucose levels 10 days (db/db mice [2]) | % Fall in lipid levels HDL (db/db mice [3]) | % Fall in lipid levels Chol. (db/db mice [3]) | % Fall in lipid levels TG (db/db mice [3]) | lowering of blood glucose in db/db mice (db/db mice [2]; summary statement)
CC(C)(C)NCC(O)COc1ccc(C(=O)/C=C/c2ccc3c(c2)OCO3)cc1 (stereo not shown) [Compound 34, 4′-[^3-tert-Butylamino-2-hydroxy-propoxy]-3,4-methylenedioxy-chalcone] | 20% | 26% | 18% | NIL | 32.0% | +1.76% | 40.3% | +7.44% | 
O=C1NC(=O)/C(=C\c2ccc(OCCCCCOc3cccc(C(=O)/C=C/c4ccc5c(c4)OCO5)c3)cc2)S1 [Compound 46, 3,4-Methylenedioxy-3′-{5-[4-(thiazolidin-2,4-dione-5-ylidinemethyl)-phenoxy]-pentyloxy}-chalcone] | 20% | 13% | 20% | 1.76% | 23.1% | 21.4% | 18.9% | 6.76% | significant lowering of blood glucose
COc1ccc(/C=C/C(=O)c2ccc(OCC(O)CN3CCN(c4ccccc4)CC3)cc2)cc1OC (stereo not shown) [Compound 18, 3,4-Dimethoxy-4′-[2-hydroxy-3-(4-phenylpiperazin-1-yl)-propoxy]-chalcone] | 8% | 20% | 12% | 29.9% | 18.9% | 11.8% | 1.36% | +5.20% | 
